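Method: 48-hour compound exposure of cells in 96-well plates, five concentrations, linear interpolation of endpoints. GI50 marks 50% less growth. TGI marks complete inhibition of growth.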
Tests used:
Assay in all cases: DTP human tumour cell line panel, 48 h
MDA-MB-231 breast = tested on: MDA-MB-231 breast
U251 CNS = tested on: U251 CNS
DU-145 prostate = tested on: DU-145 prostate
SK-MEL-5 melanoma = tested on: SK-MEL-5 melanoma
NCI-H460 lung = tested on: NCI-H460 lung
K-562 leukemia = tested on: K-562 leukemia
A549 NSCLC = tested on: A549 NSCLC
SN12C renal = tested on: SN12C renal
SK-MEL-28 melanoma = tested on: SK-MEL-28 melanoma
SK-MEL-2 melanoma = tested on: SK-MEL-2 melanoma

SMILES	TGI (MDA-MB-231 breast)	TGI (U251 CNS)	TGI (DU-145 prostate)	TGI (SK-MEL-5 melanoma)	TGI (NCI-H460 lung)	TGI (K-562 leukemia)	TGI (A549 NSCLC)	TGI (SN12C renal)	TGI (SK-MEL-28 melanoma)	TGI (SK-MEL-2 melanoma)	GI50 (U251 CNS)	GI50 (SK-MEL-28 melanoma)	GI50 (SK-MEL-5 melanoma)	GI50 (NCI-H460 lung)	GI50 (K-562 leukemia)	GI50 (SK-MEL-2 melanoma)	GI50 (A549 NSCLC)	GI50 (SN12C renal)	GI50 (MDA-MB-231 breast)	GI50 (DU-145 prostate)
N#Cc1c(NC(=S)NC(=O)c2ccccc2)nc2c(c1-c1ccccc1)CCC2	> 100 µM	> 100 µM	> 100 µM	> 100 µM	> 100 µM	> 100 µM	> 100 µM	> 100 µM												
CSC1=Nc2ccccc2N(C)c2c1c(-c1ccccc1)nn2C	> 100 µM	> 100 µM	> 100 µM	43.4 µM	> 100 µM	55.9 µM	> 100 µM	> 100 µM	> 100 µM	82.7 µM										
O=C1CC(=O)N(c2ccccc2)N1/C(=C/c1ccccc1)c1ccccc1	30 µM	27.7 µM	82.6 µM	28.2 µM	39 µM	> 100 µM	> 100 µM	44.8 µM	26 µM	69 µM										
COC1OC(=O)[C@H]2O[N+]([O-])=C(C)[C@@H]12 (stereo partly specified)		> 100 µM		> 100 µM	> 100 µM	> 100 µM	> 100 µM	> 100 µM	> 100 µM	> 100 µM										
CCn1cc(C(c2ccc(Cl)cc2)n2ccnc2)c2cc(Br)ccc21 (stereo unspecified)	35.8 µM	30.5 µM	30.3 µM	31.2 µM		33.5 µM	24 µM	> 100 µM		38.8 µM										
O=[Se]([O-])c1ccccc1.O=[Se]([O-])c1ccccc1.[OH3+].[OH3+].[Pt+2]		17.2 µM		30.5 µM	> 86.1 µM	34.6 µM	58.8 µM	53.3 µM	36.1 µM	35.5 µM	9.51 µM	10.8 µM	13.9 µM	18.6 µM	10 µM	12.7 µM	12.2 µM	9.71 µM		
Nc1n[nH]c(=O)[nH]1		> 100 µM		> 100 µM	> 100 µM	> 100 µM	> 100 µM	> 100 µM	> 100 µM	> 100 µM										
Cc1[nH]c(/C=C2\C(=O)Nc3ccc(S(=O)(=O)Cc4c(Cl)cccc4Cl)cc32)c(C)c1C(=O)N1CCC[C@@H]1CN1CCCC1	3.16 µM		3.39 µM	15.8 µM		> 100 µM		2.57 µM	2.75 µM	53.1 µM		1.4 µM	2.58 µM		1.63 µM	12.5 µM		1.24 µM	1.57 µM	1.85 µM
C=CC(=O)Nc1cccc(-c2nc(SC)nc(Nc3ccccc3OC)c2C#N)c1	4.33 µM		4.96 µM	4.32 µM		5.62 µM	5.24 µM	8.15 µM	5.71 µM	8.58 µM		2.29 µM	1.9 µM		2.03 µM	2.56 µM	2.08 µM	2.5 µM	1.83 µM	1.92 µM
O=C(Nc1ccc(I)cc1C(=O)NCCO)c1cccs1		> 100 µM		> 100 µM	> 100 µM	> 100 µM	> 100 µM	> 100 µM	> 100 µM	> 100 µM										
